In patent US9592234B2, “Methods and compositions for stimulating neurogenesis and inhibiting neuronal degeneration using isothiazolopyrimidinones” (Neuronascent, Inc., priority 2007, dated 2017):

Tests used:
[1] = system: human neuronal progenitors cells; assay: in vitro neurogenesis test; format: cell-based; details: MAP-2 staining on day 11; differentiation media; vehicle 0.2% DMSO in DMEM/F12
Experimental: The in vitro neurogenesis test was performed using human neuronal progenitors cells. By way of background, the human neuronal progenitor cells can be cultured in media and have the potential to produce mature functional neurons. The neurogenesis factor in the culture media can promote the number of the progenitor cells which differentiate into neurons. Indeed, it is a widely accepted in vitro model to test a chemical's neurogenetic property.
Cells were obtained as human neuronal progenitors from a commercial source and were grown for up to three passages or at any time differentiated to potentially produce mature functional neurons in culture. Following two passages to expand the cells, progenitors were seeded into multi-well microplates and the media were changed to differentiation media (minus serum and mitogen). Within 2 hrs of this media change, a vehicle, positive control or test compound were added to each well. Also, they were added with every further media change (50% volume change every other day). Control wells contained cells and vehicle (0.2% DMSO in DMEM/F12). […]
The cells were stained using MAP-2, a neuronal marker, on day 11. Then, each test compound was assessed for the ability to promote an increase in neuron number and compared with the positive control, leukemia inhibitory factor (LIF).

Human neurons = assay: inhibition of neurodegeneration by hydrogen peroxide (Alamar Blue respiration); format: cell-based; details: hydrogen peroxide 50 uM for up to 6 hrs, FIG. 1
Experimental: Dysfunctional neurons were initiated using any of the above agents or using hydrogen peroxide at 1-100 μM concentration. Using a dye that measures metabolic activity of the cells, such as MTT or ALAMARBLUE®, we determined the reduction of respiratory capacity of the cells, which indicated neuron dysfunction. The ability of neurogenic agents to inhibit hydrogen peroxide-induced reduction in cellular respiration was used as a measure of inhibition of neuronal dysfunction, a potential step that lead to degeneration.
Certain compounds were further analyzed to determine their ability to inhibit neurodegeneration by hydrogen peroxide. Human neurons are treated with hydrogen peroxide (50 uM) for up to 6 hrs and then neuronal loss is measured using Alamar Blue respiration.

| SMILES | Effects of compounds on the increase in the neuron numbers compared with the vehicle control, % of Control [1] | loss of respiration (neuronal loss) when added along with hydrogen peroxide (Human neurons) |
| --- | --- | --- |
| COc1ccc(-c2nsc3c(=O)n(CCCN4CCOCC4)cnc23)cc1 [3-(4-Methoxyphenyl)-6-[3-(4-morpholinyl)propyl]-isothiazolo[4,5-d]pyrimidin-7-(6H)-one] | 115% |  |
| CCN1CCCC1Cn1cnc2c(-c3ccc(OC)cc3)nsc2c1=O (stereo not shown) [3-(4-Methoxyphenyl)-6-[(1-ethylpyrrolidin-2-yl)methyl]-isothiazolo[4,5-d]pyrimidin-7(6H)-one] | 107% |  |
| CCN1CCCC1Cn1cnc2c(-c3ccc(OC)cc3)nsc2c1=O (stereo not shown) [NNI-A, 6-((1-ethylpyrrolidin-2-yl)methyl)-3-(4-methoxyphenyl)isothiazolo[4,5-d]pyrimidin-7(6H)-one] |  | less loss of respiration |
| CCN1CCCC1Cn1cnc2c(-c3ccc(F)cc3)nsc2c1=O (stereo not shown) [NNI-B, 6-((1-ethylpyrrolidin-2-yl)methyl)-3-(4-fluorophenyl)isothiazolo[4,5-d]pyrimidin-7(6H)-one] |  | less loss of respiration |
